Measurements taken from US20170334899A1, “AMINO-SUBSTITUTED ISOTHIAZOLES” (Bayer Pharma Aktiengesellschaft, priority 2014, published 2017).

The compounds below were run against T1, human kinase Mps-1 (Homo sapiens, UniProt P33981) (assay: Mps-1 kinase assay (TR-FRET)). Conditions: Mps-1 TR-FRET kinase assay; avg; read-out: Mps1 avg (IC50 [mol/l]).
T1 construct: N-terminally GST-tagged human full length recombinant Mps-1 kinase; GST (N); purchased Invitrogen, Karslruhe, Germany PV4071
T1 sequence (P33981 1-857): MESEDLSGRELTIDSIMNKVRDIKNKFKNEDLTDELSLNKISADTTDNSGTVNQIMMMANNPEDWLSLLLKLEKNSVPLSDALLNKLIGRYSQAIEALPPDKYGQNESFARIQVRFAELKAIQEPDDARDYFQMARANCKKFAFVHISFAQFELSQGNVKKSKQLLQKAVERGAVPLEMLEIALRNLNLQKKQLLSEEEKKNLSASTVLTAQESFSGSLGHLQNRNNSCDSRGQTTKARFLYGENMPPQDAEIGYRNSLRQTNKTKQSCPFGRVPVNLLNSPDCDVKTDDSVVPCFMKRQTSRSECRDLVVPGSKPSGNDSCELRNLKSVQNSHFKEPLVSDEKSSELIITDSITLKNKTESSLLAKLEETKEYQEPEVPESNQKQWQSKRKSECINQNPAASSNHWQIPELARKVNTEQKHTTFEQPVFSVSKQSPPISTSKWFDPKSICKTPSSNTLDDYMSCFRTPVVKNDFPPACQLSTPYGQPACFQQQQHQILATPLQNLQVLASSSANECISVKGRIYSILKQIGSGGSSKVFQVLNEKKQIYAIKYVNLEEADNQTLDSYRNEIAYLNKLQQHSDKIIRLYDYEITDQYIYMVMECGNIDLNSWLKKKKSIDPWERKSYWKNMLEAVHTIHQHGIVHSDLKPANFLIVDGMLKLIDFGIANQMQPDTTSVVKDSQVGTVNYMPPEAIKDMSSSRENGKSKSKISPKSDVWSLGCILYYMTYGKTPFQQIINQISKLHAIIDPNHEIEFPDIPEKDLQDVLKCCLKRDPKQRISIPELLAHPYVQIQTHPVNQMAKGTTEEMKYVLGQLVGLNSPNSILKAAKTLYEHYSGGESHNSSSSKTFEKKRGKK
Assay type: biochemical
Summary of the method: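 GST-tagged full-length recombinant human Mps-1 (~0.5 nM) pre-incubated 15 min with compound, then reacted 60 min at 22 °C with 10 μM ATP and 1 μM biotinylated peptide in Hepes pH 7.7 buffer. EDTA-stopped; TR-FRET (Eu anti-phospho-Ser/Thr to SA-XLent) 665/620 nm ratio normalised to no-inhibitor and no-enzyme controls.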

Going from `Cc1nsc(Nc2cncc(C(F)(F)F)n2)c1C(=O)Nc1ccc(OC2CCNCC2)nc1` [Example 13, 3-Methyl-N-[6-(piperidin-4-yloxy)pyridin-3-yl]-5-{[6-(trifluoromethyl)pyrazin-2-yl]-amino}-1,2-thiazole-4-carboxamide] to `CC(=O)N1CCC(Oc2ccc(NC(=O)c3c(C)nsc3Nc3cncc(C(F)(F)F)n3)cn2)CC1` [Example 17, N-{6-[(1-Acetylpiperidin-4-yl)oxy]pyridin-3-yl}-3-methyl-5-{[6-(trifluoromethyl)-pyrazin-2-yl]amino}-1,2-thiazole-4-carboxamide], the IC50 falls from at least 20 µM to 18 µM.

`Cc1nsc(Nc2cncc(C(F)(F)F)n2)c1C(=O)Nc1ccc(OC2CCN(CCF)CC2)nc1` [Example 14, N-(6-{[1-(2-Fluoroethyl)piperidin-4-yl]oxy}pyridin-3-yl)-3-methyl-5-{[6-(trifluoro-methyl)pyrazin-2-yl]amino}-1,2-thiazole-4-carboxamide] and `Cc1nsc(Nc2cncc(C(F)(F)F)n2)c1C(=O)Nc1ccc(OC2CCN(CC(F)(F)F)CC2)nc1` [Example 16, 3-Methyl-N-(6-{[1-(2,2,2-trifluoroethyl)piperidin-4-yl]oxy}pyridin-3-yl)-5-{[6-(trifluoromethyl)pyrazin-2-yl]amino}-1,2-thiazole-4-carboxamide] cannot be ordered by IC50: at least 20 µM for the first, at least 20 µM for the second.

`Cc1nsc(Nc2cnc3ccccc3n2)c1C(=O)Nc1ccc(OC2CCN(C(=O)OC(C)(C)C)CC2)nc1` [Example 18, tert-Butyl 4-{[5-({[3-methyl-5-(quinoxalin-2-ylamino)-1,2-thiazol-4-yl]carbonyl}-amino)pyridin-2-yl]oxy}piperidine-1-carboxylate] and `Cc1nsc(Nc2cnc3ccccc3n2)c1C(=O)Nc1ccc(OC2CCN(CC(F)F)CC2)nc1` [Example 20, N-(6-{[1-(2,2-difluoroethyl)piperidin-4-yl]oxy}pyridin-3-yl)-3-methyl-5-(quinoxalin-2-ylamino)-1,2-thiazole-4-carboxamide] cannot be ordered by IC50: at least 20 µM for the first, at least 20 µM for the second.

First: Cc1nsc(Nc2cnc3ccccc3n2)c1C(=O)Nc1ccc(OC2CCNCC2)nc1 [Example 19, 3-Methyl-N-[6-(piperidin-4-yloxy)pyridin-3-yl]-5-(quinoxalin-2-ylamino)-1,2-thiazole-4-carboxamide]
Second: Cc1nsc(Nc2cnc3ccccc3n2)c1C(=O)Nc1ccc(C(=O)O)cc1 [Example 187, 4-({[3-methyl-5-(quinoxalin-2-ylamino)-1,2-thiazol-4-yl]carbonyl}amino)benzoic acid]
The IC50 of the first is higher: at least 20 µM for the first, 5.4 µM for the second. The second is the more potent here.

`CCN(CC)CCNC(=O)c1cccc(NC(=O)c2c(C)nsc2Nc2cc(C#N)ccn2)c1` [Example 174, 5-[(4-cyanopyridin-2-yl)amino]-N-(3-{[2-(diethylamino)ethyl]carbamoyl}phenyl)-3-methyl-1,2-thiazole-4-carboxamide] and `Cc1nsc(Nc2cc(C#N)ccn2)c1C(=O)Nc1cccc(C(=O)NC2CC2)c1` [Example 175, 5-[(4-cyanopyridin-2-yl)amino]-N-[3-(cyclopropylcarbamoyl)phenyl]-3-methyl-1,2-thiazole-4-carboxamide] cannot be ordered by IC50: over 20 µM for the first, over 20 µM for the second.

`COC(=O)CCc1cccc(NC(=O)c2c(C)nsc2Nc2ccc(C#N)cn2)c1` [Example 176, methyl 3-{3-[({5-[(5-cyanopyridin-2-yl)amino]-3-methyl-1,2-thiazol-4-yl}carbonyl)amino]phenyl}propanoate] and `Cc1nsc(Nc2ccc(C#N)cn2)c1C(=O)Nc1cccc(N)c1` [Example 180, N-(3-aminophenyl)-5-[(5-cyanopyridin-2-yl)amino]-3-methyl-1,2-thiazole-4-carboxamide] cannot be ordered by IC50: over 20 µM for the first, over 20 µM for the second.

`Cc1nsc(Nc2cc(C#N)ccn2)c1C(=O)Nc1ccc(NC(=O)OC(C)(C)C)cc1` [Example 177, tert-butyl {4-[({5-[(4-cyanopyridin-2-yl)amino]-3-methyl-1,2-thiazol-4-yl}carbonyl)amino]phenyl}carbamate] and `Cc1nsc(Nc2cc(C#N)ccn2)c1C(=O)Nc1ccc(C(=O)OC(C)(C)C)cc1` [Example 182, tert-butyl 4-[({5-[(4-cyanopyridin-2-yl)amino]-3-methyl-1,2-thiazol-4-yl}carbonyl)amino]benzoate] cannot be ordered by IC50: over 20 µM for the first, over 20 µM for the second.

`Cc1nsc(Nc2cnc3ccccc3n2)c1C(=O)Nc1cccc(NC(=O)OC(C)(C)C)c1` [Example 178, tert-butyl [3-({[3-methyl-5-(quinoxalin-2-ylamino)-1,2-thiazol-4-yl]carbonyl}amino)-phenyl]carbamate] and `Cc1nsc(Nc2cnc3ccccc3n2)c1C(=O)Nc1cccc(NC(=O)C(C)(C)C)c1` [Example 186, N-{3-[(2,2-dimethylpropanoyl)amino]phenyl}-3-methyl-5-(quinoxalin-2-ylamino)-1,2-thiazole-4-carboxamide] cannot be ordered by IC50: over 20 µM for the first, over 20 µM for the second.

`Cc1nsc(Nc2ccc(C#N)cn2)c1C(=O)Nc1cccc(NC(=O)OC(C)(C)C)c1` [Example 179, tert-butyl {3-[({5-[(5-cyanopyridin-2-yl)amino]-3-methyl-1,2-thiazol-4-yl}carbonyl)amino]phenyl}carbamate] and `Cc1nsc(Nc2cc(C#N)ccn2)c1C(=O)Nc1cccc(NC(=O)C(C)(C)C)c1` [Example 183, 5-[(4-cyanopyridin-2-yl)amino]-N-{3-[(2,2-dimethylpropanoyl)amino]phenyl}-3-methyl-1,2-thiazole-4-carboxamide] cannot be ordered by IC50: over 20 µM for the first, over 20 µM for the second.

`Cc1nsc(Nc2cnc3ccccc3n2)c1C(=O)Nc1ccc(C(=O)OC(C)(C)C)cc1` [Example 181, tert-butyl 4-({[3-methyl-5-(quinoxalin-2-ylamino)-1,2-thiazol-4-yl]carbonyl}amino)benzoate] and `Cc1nsc(Nc2cnc3ccccc3n2)c1C(=O)Nc1ccc(NC(=O)C(C)(C)C)cc1` [Example 185, N-{4-[(2,2-dimethylpropanoyl)amino]phenyl}-3-methyl-5-(quinoxalin-2-ylamino)-1,2-thiazole-4-carboxamide] cannot be ordered by IC50: over 20 µM for the first, over 20 µM for the second.

`Cc1nsc(Nc2cnccn2)c1C(=O)Nc1ccc(C(=O)OC(C)(C)C)cc1` [Example 184, tert-butyl 4-({[3-methyl-5-(pyrazin-2-ylamino)-1,2-thiazol-4-yl]carbonyl}amino)benzoate] and `Cc1nsc(Nc2cncc(C(F)(F)F)n2)c1C(=O)Nc1ccc(C(=O)OC(C)(C)C)cc1` [Example 193, tert-butyl tert-butyl 4-{[(3-methyl-5-{[6-(trifluoromethyl)pyrazin-2-yl]amino}-1,2-thiazol-4-yl)carbonyl]amino}benzoate] cannot be ordered by IC50: over 20 µM for the first, over 20 µM for the second.

`Cc1nsc(Nc2cnc3ccccc3n2)c1C(=O)Nc1ccccc1S(C)(=O)=O` [Example 188, 3-methyl-N-[2-(methylsulfonyl)phenyl]-5-(quinoxalin-2-ylamino)-1,2-thiazole-4-carboxamide] and `Cc1nsc(Nc2cncc(C(F)(F)F)n2)c1C(=O)Nc1cccc(S(C)(=O)=O)c1` [Example 194, 3-methyl-N-[3-(methylsulfonyl)phenyl]-5-{[6-(trifluoromethyl)pyrazin-2-yl]amino}-1,2-thiazole-4-carboxamide] cannot be ordered by IC50: over 20 µM for the first, over 10 µM for the second.

`Cc1nsc(Nc2cncc(C(F)(F)F)n2)c1C(=O)Nc1ccc(OC2CCCN(C(=O)OC(C)(C)C)C2)nc1` (stereo not shown) [Example 189, tert-butyl 3-[(5-{[(3-methyl-5-{[6-(trifluoromethyl)pyrazin-2-yl]amino}-1,2-thiazol-4-yl)carbonyl]amino}pyridin-2-yl)oxy]piperidine-1-carboxylate] and `Cc1nsc(Nc2cncc(C(F)(F)F)n2)c1C(=O)Nc1ccc(OCCNC(=O)OC(C)(C)C)nc1` [Example 191, tert-butyl {2-[(5-{[(3-methyl-5-{[6-(trifluoromethyl)pyrazin-2-yl]amino}-1,2-thiazol-4-yl)carbonyl]amino}pyridin-2-yl)oxy]ethyl}carbamate] cannot be ordered by IC50: over 20 µM for the first, over 20 µM for the second.

`Cc1nsc(Nc2cncc(C(F)(F)F)n2)c1C(=O)Nc1ccc(OCCCNC(=O)OC(C)(C)C)nc1` [Example 190, tert-butyl {3-[(5-{[(3-methyl-5-{[6-(trifluoromethyl)pyrazin-2-yl]amino}-1,2-thiazoL-4-yl)carbonyl]amino}pyridin-2-yl)oxy]propyl}carbamate] and `Cc1nsc(Nc2cnc(C(F)(F)F)cn2)c1C(=O)Nc1ccc(OCCNC(=O)OC(C)(C)C)nc1` [Example 192, tert-butyl {2-[(5-{[(3-methyl-5-{[5-(trifluoromethyl)pyrazin-2-yl]amino}-1,2-thiazol-4-yl)carbonyl]amino}pyridin-2-yl)oxy]ethyl}carbamate] cannot be ordered by IC50: over 20 µM for the first, over 20 µM for the second.
